Measured values taken from patent US20210009542A1 (Calico Life Sciences LLC, priority 2018, published 2021).
Like-named read-outs stand apart in the source and are kept apart here.

Columns and labels:
[1] = target: T1, His tagged PTPN2 (TC45) protein (Homo sapiens, UniProt P17706); test: Mobility shift assay (MSA) for potency of PTPN2 inhibitors; assay type: biochemical; settings: read-out: PTPN2 MSA IC50
T1 construct: made in house
T1 sequence (P17706 with tags, fused parts or gaps isoform P17706-2): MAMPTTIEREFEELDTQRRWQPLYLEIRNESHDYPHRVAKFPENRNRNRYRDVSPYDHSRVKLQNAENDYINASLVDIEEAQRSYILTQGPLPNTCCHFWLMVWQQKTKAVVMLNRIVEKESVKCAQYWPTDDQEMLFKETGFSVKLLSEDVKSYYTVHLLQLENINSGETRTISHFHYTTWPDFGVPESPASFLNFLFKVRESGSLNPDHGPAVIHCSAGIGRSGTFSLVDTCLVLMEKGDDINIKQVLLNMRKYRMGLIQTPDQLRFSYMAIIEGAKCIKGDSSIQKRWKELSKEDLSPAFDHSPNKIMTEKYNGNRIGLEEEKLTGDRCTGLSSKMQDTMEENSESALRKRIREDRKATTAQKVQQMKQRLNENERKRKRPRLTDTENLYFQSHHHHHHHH
In short: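 His-tagged PTPN2 TC45 (0.5 nM) was preincubated with compound (12-point, 1:3) for 10 min at room temperature in 50 mM HEPES pH 7.5, 1 mM EGTA, 10 mM EDTA, 0.01% Tween 20, 2 mM DTT. OG488-labelled phospho-insulin-receptor peptide ([…]) was then added for 10 min. After quenching, dephosphorylation was measured by microfluidic mobility shift and IC50 derived from % inhibition.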

[2] = system: B16F10 mouse melanoma cells; test: B16F10 IFNγ-induced cellular growth inhibition assay; assay type: cell-based; settings: Mus musculus, B16-F10, 33 μM compound
In short: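 B16F10 cells (500/well, DMEM + 10% FBS) dosed in triplicate at 100 μM to 0.001 μM (0.1% DMSO) with or without 0.5 ng/mL final mouse IFNγ. Confluence imaged every 6 h for 5 days; % growth inhibition calculated versus DMSO/with-IFNγ control once DMSO/no-IFNγ wells exceeded 95% confluence.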

[3] = +0.5 ng/mL IFNγ, relative to DMSO control, read-out: % B16F10 growth inhibition (+0.5 ng/mL IFNγ) @ 33 μM
[4] = no IFNγ, read-out: % B16F10 growth inhibition (no IFNγ) @ 33 μM

CCS(=O)(=O)N1CC=C(c2ccc3cc(O)c(N4CC(=O)NS4(=O)=O)c(F)c3c2)C1 [Compound 295, 5-{7-[1-(ethanesulfonyl)-2,5-dihydro-1H-pyrrol-3-yl]-1-fluoro-3-hydroxynaphthalen-2-yl}-1λ^6,2,5-thiadiazolidine-1,1,3-trione]
IC50 [1]: < 1 nM
inhibition at 33 µM [2, 3]: > 90%
inhibition at 33 µM [2, 4]: < 25%

O=C1CN(c2c(O)cc3ccc(OC4COC4)cc3c2F)S(=O)(=O)N1 [Compound 274, 5-{1-fluoro-3-hydroxy-7-[(oxetan-3-yl)oxy]naphthalen-2-yl}-1λ^6,2,5-thiadiazolidine-1,1,3-trione]
IC50 [1]: 1 to 10 nM
inhibition at 33 µM [2, 3]: 60 to 90%
inhibition at 33 µM [2, 4]: < 25%

CP(C)(=O)N1CC=C(c2ccc3cc(O)c(N4CC(=O)NS4(=O)=O)c(F)c3c2)C1 [Compound 168, 5-{7-[1-(dimethylphosphoryl)-2,5-dihydro-1H-pyrrol-3-yl]-1-fluoro-3-hydroxynaphthalen-2-yl}-1λ^6,2,5-thiadiazolidine-1,1,3-trione]
IC50 [1]: < 1 nM
inhibition at 33 µM [2, 3]: > 90%
inhibition at 33 µM [2, 4]: < 25%

O=C1CN(c2c(O)cc3ccc(OCCNS(=O)(=O)C4CC4)cc3c2F)S(=O)(=O)N1 [Compound 127, N-(2-{[8-fluoro-6-hydroxy-7-(1,1,4-trioxo-1λ^6,2,5-thiadiazolidin-2-yl)naphthalen-2-yl]oxy}ethyl)cyclopropanesulfonamide]
IC50 [1]: < 1 nM
inhibition at 33 µM [2, 3]: 60 to 90%
inhibition at 33 µM [2, 4]: < 25%

COc1ccc2c(Cl)c(O)c(N3CC(=O)NS3(=O)=O)c(F)c2c1 [Compound 238, 5-(4-chloro-1-fluoro-3-hydroxy-7-methoxynaphthalen-2-yl)-1λ^6,2,5-thiadiazolidine-1,1,3-trione]
IC50 [1]: 10 to 100 nM
inhibition at 33 µM [2, 3]: < 25%
inhibition at 33 µM [2, 4]: < 25%

O=C1CN(c2c(O)cc3ccc(OCCC4CC4)cc3c2F)S(=O)(=O)N1 [Compound 211, 5-[7-(2-cyclopropylethoxy)-1-fluoro-3-hydroxynaphthalen-2-yl]-1λ^6,2,5-thiadiazolidine-1,1,3-trione]
IC50 [1]: < 1 nM
inhibition at 33 µM [2, 3]: 60 to 90%
inhibition at 33 µM [2, 4]: < 25%

CC(C)CCNc1ccc2cc(O)c(N3CC(=O)NS3(=O)=O)c(F)c2c1 [Compound 200, 5-{1-fluoro-3-hydroxy-7-[(3-methylbutyl)amino]naphthalen-2-yl}-1λ^6,2,5-thiadiazolidine-1,1,3-trione]
IC50 [1]: 1 to 10 nM
inhibition at 33 µM [2, 3]: > 90%
inhibition at 33 µM [2, 4]: < 25%

O=C1CN(c2c(O)cc3ccc(OC4CC4)cc3c2F)S(=O)(=O)N1 [Compound 223, 5-[7-(cyclopropyloxy)-1-fluoro-3-hydroxynaphthalen-2-yl]-1λ^6,2,5-thiadiazolidine-1,1,3-trione]
IC50 [1]: 1 to 10 nM
inhibition at 33 µM [2, 3]: 60 to 90%
inhibition at 33 µM [2, 4]: < 25%

CC(C)CCS(=O)(=O)N1CC=C(c2ccc3cc(O)c(N4CC(=O)NS4(=O)=O)c(F)c3c2)C1 [Compound 313, 5-{1-fluoro-3-hydroxy-7-[1-(3-methylbutane-1-sulfonyl)-2,5-dihydro-1H-pyrrol-3-yl]naphthalen-2-yl}-1λ^6,2,5-thiadiazolidine-1,1,3-trione]
IC50 [1]: < 1 nM
inhibition at 33 µM [2, 3]: 60 to 90%
inhibition at 33 µM [2, 4]: < 25%

N#CCCCCOc1ccc2cc(O)c(N3CC(=O)NS3(=O)=O)c(F)c2c1 [Compound 111, 5-{[8-fluoro-6-hydroxy-7-(1,1,4-trioxo-1λ^6,2,5-thiadiazolidin-2-yl)naphthalen-2-yl]oxy}pentanenitrile]
IC50 [1]: < 1 nM
inhibition at 33 µM [2, 3]: 60 to 90%
inhibition at 33 µM [2, 4]: < 25%

CC(C)CNc1ccc2cc(O)c(N3CC(=O)NS3(=O)=O)c(F)c2c1 [Compound 201, 5-{1-fluoro-3-hydroxy-7-[(2-methylpropyl)amino]naphthalen-2-yl}-1λ^6,2,5-thiadiazolidine-1,1,3-trione]
IC50 [1]: 1 to 10 nM
inhibition at 33 µM [2, 3]: 60 to 90%
inhibition at 33 µM [2, 4]: < 25%

CCCOc1ccc2cc(O)c(N3CC(=O)NS3(=O)=O)c(F)c2c1 [Compound 278, 5-(1-fluoro-3-hydroxy-7-propoxynaphthalen-2-yl)-1λ^6,2,5-thiadiazolidine-1,1,3-trione]
IC50 [1]: 1 to 10 nM
inhibition at 33 µM [2, 3]: 60 to 90%
inhibition at 33 µM [2, 4]: < 25%

CS(=O)(=O)N1CC(Nc2ccc3cc(O)c(N4CC(=O)NS4(=O)=O)c(F)c3c2)C1 [Compound 128, 5-(1-fluoro-3-hydroxy-7-{[1-(methanesulfonyl)azetidin-3-yl]amino}naphthalen-2-yl)-1λ^6,2,5-thiadiazolidine-1,1,3-trione]
IC50 [1]: 1 to 10 nM
inhibition at 33 µM [2, 3]: > 90%
inhibition at 33 µM [2, 4]: < 25%

CC(C)S(=O)(=O)N1CC=C(c2ccc3cc(O)c(N4CC(=O)NS4(=O)=O)c(F)c3c2)C1 [Compound 296, 5-{1-fluoro-3-hydroxy-7-[1-(propane-2-sulfonyl)-2,5-dihydro-1H-pyrrol-3-yl]naphthalen-2-yl}-1λ^6,2,5-thiadiazolidine-1,1,3-trione]
IC50 [1]: < 1 nM
inhibition at 33 µM [2, 3]: > 90%
inhibition at 33 µM [2, 4]: < 25%

N#CCC1(COc2ccc3cc(O)c(N4CC(=O)NS4(=O)=O)c(F)c3c2)CC1 [Compound 130, [1-({[8-fluoro-6-hydroxy-7-(1,1,4-trioxo-1λ^6,2,5-thiadiazolidin-2-yl)naphthalen-2-yl]oxy}methyl)cyclopropyl]acetonitrile]
IC50 [1]: < 1 nM
inhibition at 33 µM [2, 3]: 60 to 90%
inhibition at 33 µM [2, 4]: < 25%

CC(C)(CN)CCOc1ccc2cc(O)c(N3CC(=O)NS3(=O)=O)c(F)c2c1 [Compound 176, 5-[7-(4-amino-3,3-dimethylbutoxy)-1-fluoro-3-hydroxynaphthalen-2-yl]-1λ^6,2,5-thiadiazolidine-1,1,3-trione]
IC50 [1]: 1 to 10 nM
inhibition at 33 µM [2, 3]: > 90%
inhibition at 33 µM [2, 4]: < 25%

N#CCCCNc1ccc2cc(O)c(N3CC(=O)NS3(=O)=O)c(F)c2c1 [Compound 174, 4-{[8-fluoro-6-hydroxy-7-(1,1,4-trioxo-1λ^6,2,5-thiadiazolidin-2-yl)naphthalen-2-yl]amino}butanenitrile]
IC50 [1]: 1 to 10 nM
inhibition at 33 µM [2, 3]: > 90%
inhibition at 33 µM [2, 4]: < 25%

O=C1CN(c2c(O)cc3ccc(OC4CN(S(=O)(=O)C5CC5)C4)cc3c2F)S(=O)(=O)N1 [Compound 178, 5-(7-{[1-(cyclopropanesulfonyl)azetidin-3-yl]oxy}-1-fluoro-3-hydroxynaphthalen-2-yl)-1λ^6,2,5-thiadiazolidine-1,1,3-trione]
IC50 [1]: 1 to 10 nM
inhibition at 33 µM [2, 3]: 60 to 90%
inhibition at 33 µM [2, 4]: < 25%

O=C1CN(c2c(O)cc3ccc(OCCO)cc3c2F)S(=O)(=O)N1 [Compound 277, 5-[1-fluoro-3-hydroxy-7-(2-hydroxyethoxy)naphthalen-2-yl]-1λ^6,2,5-thiadiazolidine-1,1,3-trione]
IC50 [1]: 1 to 10 nM
inhibition at 33 µM [2, 3]: 60 to 90%
inhibition at 33 µM [2, 4]: < 25%

CC1(CCOc2ccc3cc(O)c(N4CC(=O)NS4(=O)=O)c(F)c3c2)CC1 [Compound 193, 5-{1-fluoro-3-hydroxy-7-[2-(1-methylcyclopropyl)ethoxy]naphthalen-2-yl}-1λ^6,2,5-thiadiazolidine-1,1,3-trione]
IC50 [1]: < 1 nM
inhibition at 33 µM [2, 3]: 25 to 59%
inhibition at 33 µM [2, 4]: < 25%

CNCC(C)(C)CCOc1ccc2cc(O)c(N3CC(=O)NS3(=O)=O)c(F)c2c1 [Compound 163, 5-{7-[3,3-dimethyl-4-(methylamino)butoxy]-1-fluoro-3-hydroxynaphthalen-2-yl}-1λ^6,2,5-thiadiazolidine-1,1,3-trione]
IC50 [1]: < 1 nM
inhibition at 33 µM [2, 3]: > 90%
inhibition at 33 µM [2, 4]: < 25%

COCCNc1ccc2cc(O)c(N3CC(=O)NS3(=O)=O)c(F)c2c1 [Compound 179, 5-{1-fluoro-3-hydroxy-7-[(2-methoxyethyl)amino]naphthalen-2-yl}-1λ^6,2,5-thiadiazolidine-1,1,3-trione]
IC50 [1]: 10 to 100 nM
inhibition at 33 µM [2, 3]: > 90%
inhibition at 33 µM [2, 4]: < 25%

[2H]C1([2H])C(=O)NS(=O)(=O)N1c1c(O)cc2ccc(OC)cc2c1F [Compound 123, 5-(1-fluoro-3-hydroxy-7-methoxynaphthalen-2-yl)(4,4-^2H2)-1λ^6,2,5-thiadiazolidine-1,1,3-trione]
IC50 [1]: 1 to 10 nM
inhibition at 33 µM [2, 3]: 60 to 90%
inhibition at 33 µM [2, 4]: < 25%

CP(C)(=O)c1ccc(-c2ccc3cc(O)c(N4CC(=O)NS4(=O)=O)c(F)c3c2)s1 [Compound 141, 5-{7-[5-(dimethylphosphoryl)thiophen-2-yl]-1-fluoro-3-hydroxynaphthalen-2-yl}-1λ^6,2,5-thiadiazolidine-1,1,3-trione]
IC50 [1]: < 1 nM
inhibition at 33 µM [2, 3]: 60 to 90%
inhibition at 33 µM [2, 4]: < 25%
